Results as given in ChEMBL document CHEMBL1201862, “PubChem BioAssay data set” (2004).
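Five compound concentrations were applied to cells in 96-well plates for 48 hours; endpoints were derived by simple linear interpolation of the resulting dose-response curve. The concentration for 50% growth inhibition is given as GI50.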 The source made the active and inactive calls. Cut-off read from the data, not from the text of the source: active = GI50 up to about 1.1 µM and inactive = higher.

How the values were obtained:
Experiment in all cases: NCI anticancer screen, dose series, 48 h
[1] = system: CAKI-1
[2] = system: COLO 205
[3] = system: DLD-1
[4] = system: HOP-62
[5] = system: HOP-92
[6] = system: IGROV-1
[7] = system: KM12
[8] = system: LOX IMVI
[9] = system: Malme-3M
[10] = system: NCI-H226
[11] = system: OVCAR-3
[12] = system: RPMI-8226
[13] = system: SK-MEL-2
[14] = system: SW-620
[15] = system: TK-10
[16] = system: UACC-257
[17] = system: UO-31
[18] = system: SF-295
[19] = system: SNB-75

SMILES | GI50 [1] | GI50 [2] | GI50 [3] | GI50 [4] | GI50 [5] | GI50 [6] | GI50 [7] | GI50 [8] | GI50 [9] | GI50 [10] | GI50 [11] | GI50 [12] | GI50 [13] | GI50 [14] | GI50 [15] | GI50 [16] | GI50 [17] | GI50 [18] | GI50 [19]
O=C1c2c(nc3ccccc3c2-c2ccccc2)CN1Nc1ccccc1 | > 100 µM (inactive) | > 100 µM (inactive) | > 100 µM (inactive) | 53.8 µM (inactive) | > 100 µM (inactive) | > 100 µM (inactive) | > 100 µM (inactive) | > 100 µM (inactive) | > 100 µM (inactive) | > 100 µM (inactive) | > 100 µM (inactive) | > 100 µM (inactive) | > 100 µM (inactive) | > 100 µM (inactive) | > 100 µM (inactive) | > 100 µM (inactive) | > 100 µM (inactive) |  | 
COc1ccc2nc(NC(=O)C(=O)NNC(=O)c3ccncc3)sc2c1 | > 100 µM (inactive) | > 100 µM (inactive) | > 100 µM (inactive) | > 100 µM (inactive) | > 100 µM (inactive) | > 100 µM (inactive) |  | > 100 µM (inactive) | > 100 µM (inactive) | > 100 µM (inactive) | > 100 µM (inactive) |  |  | > 100 µM (inactive) | > 100 µM (inactive) | > 100 µM (inactive) | > 100 µM (inactive) | > 100 µM (inactive) | > 100 µM (inactive)
COc1cc(CC(C(=O)O)C(=O)O)c(OC)cc1CC(C(=O)O)C(=O)O | > 100 µM (inactive) | > 100 µM (inactive) | > 100 µM (inactive) | > 100 µM (inactive) | > 100 µM (inactive) | > 100 µM (inactive) | > 100 µM (inactive) | > 100 µM (inactive) | > 100 µM (inactive) | > 100 µM (inactive) | > 100 µM (inactive) | > 100 µM (inactive) |  | > 100 µM (inactive) | > 100 µM (inactive) | > 100 µM (inactive) | > 100 µM (inactive) | > 100 µM (inactive) | > 100 µM (inactive)
O=C(Nc1ccccc1-c1nn(CO)c(=S)n(CO)c1=O)C(F)(F)F | > 100 µM (inactive) | > 100 µM (inactive) | 95.7 µM (inactive) | > 100 µM (inactive) | > 100 µM (inactive) | > 100 µM (inactive) | > 100 µM (inactive) | > 100 µM (inactive) | > 100 µM (inactive) | > 100 µM (inactive) | > 100 µM (inactive) |  | > 100 µM (inactive) | > 100 µM (inactive) | > 100 µM (inactive) |  | > 100 µM (inactive) | > 100 µM (inactive) | 92.3 µM (inactive)
CCOC(=O)C(=O)Nc1ccc(Cl)c(C(F)(F)F)c1 | > 100 µM (inactive) | > 100 µM (inactive) | > 100 µM (inactive) | > 100 µM (inactive) | < 0.01 µM (active) | > 100 µM (inactive) |  | > 100 µM (inactive) | > 100 µM (inactive) | > 100 µM (inactive) | > 100 µM (inactive) | > 100 µM (inactive) | > 100 µM (inactive) | > 100 µM (inactive) | > 100 µM (inactive) | > 100 µM (inactive) | > 100 µM (inactive) | > 100 µM (inactive) | > 100 µM (inactive)
COc1ccc(/C=c2\sc3n(c2=O)C(N)=C(C#N)C(c2ccc(OC)cc2)C=3c2nc3ccccc3[nH]2)cc1 (centres undefined) | 21.4 µM (inactive) | 56.4 µM (inactive) | > 10 µM (inactive) | 38.7 µM (inactive) | 12.2 µM (inactive) | 44.7 µM (inactive) | 14.2 µM (inactive) | 18 µM (inactive) | 22.6 µM (inactive) | 27 µM (inactive) | 19.6 µM (inactive) | 55.6 µM (inactive) | 28.6 µM (inactive) | 27.7 µM (inactive) | 16.1 µM (inactive) | 28.9 µM (inactive) | > 100 µM (inactive) |  | 29.6 µM (inactive)
